The species named for assay [1] is Rattus norvegicus. Nature of the assay: Effective dose for drug discrimination assay in rats using LSD as training drug. Type of assay: functional.
Assay [2] concerns the target T1, Norepinephrine transporter (Rattus norvegicus, UniProt Q9WTR4). Nature of the assay: (§1) Compound was tested for the ability to inhibit [3H]norepinephrine binding to Norepinephrine transporter in rat synaptosomes. Type of assay: subcellular, Brain.
Assay [3] is described as follows: selectivity is the ratio between IC50 values of 5-HTand DA.
The species entered for assay [4] is Rattus norvegicus. Nature of the assay: Effective dose for drug discrimination assay in rats using (+)-Amphitamine as training drug; NS = No substitution. It counts as functional, organism-based.
The target in assay [5] is Sodium-dependent serotonin transporter (Rattus norvegicus, UniProt P31652). Nature of the assay: Activity towards Serotonin transporter was determined by the ability to inhibit [3H]5-HT uptake in rat synaptosomes. Type of assay: subcellular, Brain.
Chain of Sodium-dependent serotonin transporter (P31652 whole entry): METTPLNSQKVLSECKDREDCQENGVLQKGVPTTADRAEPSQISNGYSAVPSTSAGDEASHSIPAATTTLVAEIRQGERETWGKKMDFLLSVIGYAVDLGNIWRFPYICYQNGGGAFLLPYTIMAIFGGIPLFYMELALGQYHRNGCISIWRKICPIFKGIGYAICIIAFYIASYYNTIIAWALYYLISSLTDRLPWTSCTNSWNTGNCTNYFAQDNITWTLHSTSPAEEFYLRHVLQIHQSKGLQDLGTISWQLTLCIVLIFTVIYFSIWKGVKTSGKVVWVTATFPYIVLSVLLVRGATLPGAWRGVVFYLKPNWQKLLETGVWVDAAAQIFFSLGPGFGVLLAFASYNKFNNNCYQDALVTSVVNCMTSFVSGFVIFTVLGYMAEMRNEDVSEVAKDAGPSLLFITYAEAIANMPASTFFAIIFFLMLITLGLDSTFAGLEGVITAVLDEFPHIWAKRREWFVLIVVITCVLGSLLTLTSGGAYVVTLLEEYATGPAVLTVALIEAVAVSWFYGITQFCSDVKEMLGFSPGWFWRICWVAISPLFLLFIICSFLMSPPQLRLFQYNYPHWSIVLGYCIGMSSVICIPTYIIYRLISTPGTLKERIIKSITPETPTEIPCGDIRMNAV
Assay [6] is filed under the species Rattus norvegicus. Nature of the assay: Effective dose for drug discrimination assay in rats using (+)-MBDB as training drug. It counts as functional.
The species entered for assay [7] is Rattus norvegicus. Nature of the assay: Effective dose for drug discrimination assay in rats using MMAI as training drug. It counts as functional.
For assay [8], the species on record is Rattus norvegicus. Nature of the assay: Effective dose for drug discrimination assay in rats using LSD as training drug. It counts as functional.
Assay [9] is filed under the species Rattus norvegicus. Nature of the assay: Effective dose for drug discrimination assay in rats using DOIas training drug. Type of assay: functional.
Assay [10] is filed under the species Rattus norvegicus. Put plainly: Compound was tested for its ability to inhibit [3H]dopamine uptake in rat synaptosomes. Conditions: Brain. Type of assay: functional.
For assay [11], the species on record is Rattus norvegicus. Put plainly: Effective dose for drug discrimination assay in rats using (+)-amphetamine as training drug. It counts as functional.
The target of assay [12] is T1, Norepinephrine transporter. Described as §1. It counts as functional, subcellular, Brain.
Assay [13] is filed under the species Rattus norvegicus. Nature of the assay: Effective dose for drug discrimination assay in rats using (+)-MBDB as training drug. Type of assay: functional.
For assay [14], the species on record is Rattus norvegicus. Nature of the assay: Effective dose for drug discrimination assay in rats using DOI as training drug. Type of assay: functional.

Each structure is given as a SMILES string. pIC50: −log10 of the molar value. Activity calls are given as the source filed them. The calls are words filed in the database; no cut-off is given here.

T1 sequence (Q9WTR4 whole entry): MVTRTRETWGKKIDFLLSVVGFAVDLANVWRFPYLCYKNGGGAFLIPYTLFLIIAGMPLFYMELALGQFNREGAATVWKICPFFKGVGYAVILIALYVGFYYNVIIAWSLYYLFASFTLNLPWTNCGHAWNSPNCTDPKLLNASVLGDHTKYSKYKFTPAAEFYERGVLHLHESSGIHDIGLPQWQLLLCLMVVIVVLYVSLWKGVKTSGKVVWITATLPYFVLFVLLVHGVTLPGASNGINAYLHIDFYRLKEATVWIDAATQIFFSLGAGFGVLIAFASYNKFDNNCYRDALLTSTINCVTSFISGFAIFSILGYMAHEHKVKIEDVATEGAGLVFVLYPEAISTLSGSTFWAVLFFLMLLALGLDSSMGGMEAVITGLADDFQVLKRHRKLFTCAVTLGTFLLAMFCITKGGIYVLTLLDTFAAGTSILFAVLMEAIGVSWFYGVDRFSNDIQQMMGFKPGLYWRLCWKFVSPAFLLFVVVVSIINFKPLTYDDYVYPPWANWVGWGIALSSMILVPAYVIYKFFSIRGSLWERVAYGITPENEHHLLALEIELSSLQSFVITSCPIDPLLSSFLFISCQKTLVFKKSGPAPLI

As usually defined, the ED50 is the midpoint of the dose-response relation. Regarding `CCN(CC)C(=O)[C@@H]1C=C2c3cccc4[nH]cc(c34)C[C@H]2N(C)C1` [LYSERGIDE], the ED50 in the assay listed under Rattus norvegicus [1] was found to be 0.04 µmol/kg.
A word on the pIC50: it is the negative decadic logarithm of the IC50, by convention in mol/L. High values mean a small IC50, low ones a large IC50. On to `Cc1cc2c(cc1CC(C)N)OCO2` (stereo not drawn), for which the pIC50 in assay [2] is 5.34; in [5], 6.11; in the assay listed under Rattus norvegicus [10], 4.55. Further, the Selectivity in assay [3] came out at 36. In addition, in the assay listed under Rattus norvegicus [4], the ED50 entry was “inactive”. Further, the ED50 is 17.4 µmol/kg in the assay filed under Rattus norvegicus [6], 7.65 µmol/kg in the assay listed under Rattus norvegicus [7], 17.4 µmol/kg in the assay filed under Rattus norvegicus [8] and 8.72 µmol/kg in the assay filed under Rattus norvegicus [9].
On to `CC(N)Cc1ccc2c(c1)CCC2` (stereo not drawn), for which the pIC50 is 6.07 in assay [2] and 7.09 in assay [5]. In addition, the Selectivity in [3] is 23.
As to `C[C@H](N)Cc1ccccc1` [DEXTROAMPHETAMINE], in the assay listed under Rattus norvegicus [11], the ED50 was determined as 1.06 µmol/kg.
With `Cc1c(CC(C)N)ccc2c1OCO2` (stereo not drawn), the pIC50 was 5.71 in assay [12], 7.03 in assay [5] and 4.92 in the assay filed under Rattus norvegicus [10]. Further, in assay [3], the Selectivity came out at 129. For the same compound, in the assay listed under Rattus norvegicus [4], the ED50 result is “inactive”. For the same compound, the ED50 in the assay listed under Rattus norvegicus [13] came to 1.83 µmol/kg; in the assay filed under Rattus norvegicus [7], 1.71 µmol/kg; in the assay filed under Rattus norvegicus [8], 4.1 µmol/kg; in the assay listed under Rattus norvegicus [9], 1.7 µmol/kg.
Consider `COc1cc2c(cc1C)CC(N)C2` (stereo not drawn), for which, in the assay listed under Rattus norvegicus [7], it took a dose of 1.83 µmol/kg to reach the 50% effect level (ED50).
On to `CSc1ccc(CC(C)N)cc1` (stereo not drawn) [4-METHYLTHIOAMPHETAMINE], for which the pIC50 was 5.62 in assay [2], 7.13 in assay [5] and 5.51 in the assay listed under Rattus norvegicus [10]. Besides, the Selectivity in assay [3] was determined as 42.
Regarding `COc1cc(CC(C)N)c(OC)cc1I` (stereo not drawn), the 50% effect level in the assay filed under Rattus norvegicus [14] (ED50) was put at a dose of 0.3 µmol/kg.
On to `CC(N)Cc1ccc2c(c1)OCO2` (stereo not drawn) [TENAMFETAMINE], for which the pIC50 in [2] is 6.58; in [5] it was 6.32; in the assay filed under Rattus norvegicus [10], 6.05. Besides, the Selectivity in assay [3] is 2. Also, the ED50 result in the assay filed under Rattus norvegicus [4] is “inactive”. In the assay filed under Rattus norvegicus [13], the ED50 is 2.07 µmol/kg.
Turning to `Cc1cc(CC(C)N)cc2c1OCO2` (stereo not drawn), the pIC50 in [2] is 5.83; in [5], 6.97; in the assay listed under Rattus norvegicus [10] it was 4.94. Also, in assay [3], the Selectivity was found to be 108. Besides, the ED50 result in the assay listed under Rattus norvegicus [4] was “inactive”. Also, the ED50 amounted to 2 µmol/kg in the assay filed under Rattus norvegicus [13], 1.53 µmol/kg in the assay listed under Rattus norvegicus [7], 8.72 µmol/kg in the assay filed under Rattus norvegicus [8] and 2.11 µmol/kg in the assay filed under Rattus norvegicus [9].
Take `CC(N)Cc1ccc(I)cc1` (stereo not drawn) [p-IODOAMPHETAMINE]: the pIC50 is 6.00 in assay [2], 7.09 in [5] and 6.23 in the assay filed under Rattus norvegicus [10]. Further, the Selectivity in assay [3] came to 7.

These data come from ChEMBL document CHEMBL1131486, “Synthesis and pharmacological evaluation of ring-methylated derivatives of 3,4-(methylenedioxy)amphetamine (MDA)” (J Med Chem, 1998).
